Data: patent US20120302609A1, “Pyrazolines for the Modulation of PKM2” (Dynamix Pharmaceuticals LTD., priority 2011, published 2012)

What was measured:
[1] = HT-29 xenograft mouse model, safety (body weight, observations); type: in vivo
Experimental: This example illustrates the efficacy and safety of a compound according to embodiments of the present invention, i.e., Compound 1A, using a HT-29 xenograft mouse model (a colorectal cancer model).
All the procedures related to animal handling, care, and the treatment in this study were performed according to approved guidelines a following the guidance of the Association for Assessment and Accreditation of Laboratory Animal Care (AAALAC). At the time of routine monitoring, the animals were checked for any effects of tumor growth and treatments on normal behavior such as mobility, food and water consumption (by looking only), body weight gain/loss (body weights were measured thrice weekly), eye/hair matting and any other abnormal effect. Death and observed clinical signs were recorded on the basis of the numbers of animals within each subset.
• a. Blood samples were collected after the 1st dose and the 23rd dose. Collected blood samples from 2 animals in each group at the designated timepoints post dose. The detailed timepoints are as below: • For the groups with QD dosing schedule: 1, 4, 8 and 24 hr post dose. • For the groups with Q2D dosing schedule: 1, 8, 24 and 48 hr post dose. • b. 20 μl blood was collected via tail vein in EDTA-2K tube (0.5 ml tube containing 0.4 μl 15% EDTA-2K. 60u1 double distilled water was added into the tube and mixed well.

DU145 (prostate) = test: Cell proliferation assay (CellTiter-Glo Luminescent); type: cell-based; conditions: Homo sapiens, DU-145, Complete media, 96 hr
H-460 (lung) = test: Cell proliferation assay (XTT); type: cell-based; conditions: Homo sapiens, NCI-H460, 72 h, Assay duration: 72 hours, Readout: XTT
Experimental: (§1) Day 0 Cells were seeded at 3000 cells/well in 100 μl full media in 96-well culture plates (60 wells/plate, external wells filled with 100 μl PBS) and incubated overnight. • Day 1 On the following day, full media was changed to the tested media and compounds were added in 0.5% DMSO final. • Day 2-5 Cells were incubated over 72 hr. • Day 5 Cell proliferation was assessed using XTT proliferation assay as follows:
(§2) The assay is based on the ability of metabolic active cells to reduce the tetrazolium salt XTT to orange colored compounds of formazan. The dye formed is water soluble and the dye intensity can be read at a given wavelength with a spectrophotometer. The intensity of the dye is proportional to the number of metabolic active cells. The use of multiwell plates and an ELISA reader enables testing a large number of samples and obtaining easy and rapid results. The test procedure includes cultivation of cells in a 96-well plate, adding the XTT reagent and incubation for 2-24 hours. During incubation an orange color is formed, the intensity of which can be measured with a spectrophotometer, in this instance with an ELISA reader. The greater the number of active cells in the well, the greater the activity of mitochondria enzymes, and the higher the concentration of the dye formed, which can then be measured and quantitated.
• 1. […] The absorbance of the samples was measured against a background control as a blank (see 7) with a spectrophotometer (ELISA reader) at a wavelength of 450-500 nanometer. In order to measure reference absorbance (to measure non-specific readings), a wavelength of 630-690 nanometer was used and subtracted from the 450-500 nanometer measurement. • 7. Background control (blank): Slight spontaneous absorbance around 450-500 nanometer occurs in the culture medium incubated with the XTT reagent. This background absorbance depends on the culture medium, pH, incubation time and length of exposure to light. […] The average absorbance of the blank control wells was subtracted from that of the other wells. […]

HT-29 (colon) = test: Cell proliferation assay (XTT or CellTiter-Glo); type: cell-based; conditions: Homo sapiens
Experimental: as §1
as §2, with “The intensity of the dye is proportional to the number of metabolic active cells.” left out, “The test procedure includes cultivation of cells in a 96-well plate, adding the XTT reagent and incubation for 2-24 hours.” left out
• 1. […] The absorbance of the samples was measured against a background control as a blank (see 7) with a spectrophotometer (ELISA reader) at a wavelength of 450-500 nanometer. […] The average absorbance of the blank control wells was subtracted from that of the other wells. […]

| Compound | body weight loss ([1]; all the treatment groups (100-400 mg/kg i.p.)) | in vivo safety profile ([1]; highest dosage level 400 mg/kg QD) | AC50 (DU145 (prostate)) [µM] | AC50 (H-460 (lung); 1 mM glucose) [µM] | AC50 (H-460 (lung); Complete media) [µM] | AC50 (H-460 (lung); Lipoprotein-free media) [µM] | AC50 (HT-29 (colon); 1 mM glucose, Assay duration: 72 hours, Readout: XTT) [µM] | AC50 (HT-29 (colon); Complete media, 96 hr, CellTiter-Glo) [µM] |
| --- | --- | --- | --- | --- | --- | --- | --- | --- |
| CCS(=O)(=O)Nc1ccc(C2=NN(C(C)=O)C(c3ccc(OC)cc3)C2)cc1 (racemic) [Compound 1A, N-(4-(1-acetyl-5-(4-methoxyphenyl)-4,5-dihydro-1H-pyrazol-3-yl)phenyl)ethanesulfonamide] | No significant body weight loss | good in vivo safety profile | – | – | – | – | – | – |
| COc1ccc([C@@H]2CC(c3ccc(NS(=O)(=O)c4ccc(F)cc4)cc3)=NN2C(C)=O)cc1 [Compound 13A, (S)—N-(4-(1-acetyl-5-(4-methoxyphenyl)-4,5-dihydro-1H-pyrazol-3-yl)phenyl)-4-fluorobenzenesulfonamide] | – | – | 10 to 20 | 10 to 20 | > 20 | < 3 | 3 to 10 | 10 to 20 |
